Results taken from patent US6878746B2, “Carbamate and thiocarbamate podophyllotoxin derivatives, preparation method and pharmaceutical compositions containing them” (priority 2000, dated 2005).

Tests used:
L1210 cells = experiment: Action on the cell cycle (propidium iodide); assay type: cell-based, murine; details: 100 nM, after 21 hours; control: 20%
Protocol: L1210 cells are incubated for 21 hours at 37° C. in the presence of various concentrations of test compounds. The cells are then fixed using 70% ethanol (v/v), washed twice in PBS and incubated for 30 minutes at 20° C. in PBS that contains 100 μg/ml of RNAse and 50 μg/ml of propidium iodide. The results are expressed as a percentage of the cells that have accumulated in the G2+M phase after 21 hours compared with the control (control: 20%). At a concentration of 100 nM, the compound of Example 6 induces an 86% accumulation of the cells in the G2+M phase after 21 hours.

P388 (murine leukaemia) = experiment: Anti-tumour activity on P388 leukaemia; assay type: in vivo, female BDF1 mice; details: 6.25 mg/kg, intravenous route on day 1; tumour cells inoculated i.p.
Protocol: Line P388 (murine leukaemia) was supplied by the National Cancer Institute (Frederick, USA). The tumour cells (10^6 cells) were inoculated on day 0 into the peritoneal cavity of female BDF1 mice (Iffa-Credo, France) weighing from 18 to 20 g (groups of 6 animals).
The products were administered by the intravenous route on day 1.
The anti-tumour activity is expressed as % T/C: [formula] For information only, the compound of Example 6 is active against P388 leukaemia and induces a T/C of 203% at 6.25 mg/kg. *Anti-tumour Activity of the Compounds on Lewis Lung Carcinoma: […]

[1] = test system: epidermoid carcinoma A-431; experiment: In vitro cytotoxicity, Microculture Tetrazolium Assay; assay type: cell-based, human; details: exposure for four doubling periods (48 or 96 hours)
Protocol: (§1) The compounds of the invention were tested on various human and murine cell lines: • murine leukaemia L1210, • epidermoid carcinoma A-431, • non-small-cell lung carcinoma A549, • small-cell lung carcinoma H69, • colon carcinoma HT29, • buccal epidermoid carcinoma KB-3-1.
(§2) The cells are cultured in RPMI 1640 complete culture medium comprising 10% foetal calf serum, 2 mM glutamine, 50 units/ml of penicillin, 50 μg/ml of streptomycin and 10 mM Hepes, pH 7.4. The cells are distributed on microplates and are exposed to the cytotoxic compounds for four doubling periods, that is to say 48 hours or 96 hours. The number of viable cells is then quantified by a colorimetric assay, the Microculture Tetrazolium Assay (J. Carmichael et al., Cancer Res.; 47, 936-942, (1987)). The results are expressed as IC50, the cytotoxic concentration that inhibits the proliferation of the treated cells by 50%.

colon carcinoma HT29 = experiment: as above; assay type: cell-based, human; details: exposure for four doubling periods (48 or 96 hours)
Protocol: as §1, §2

[2] = test system: small-cell lung carcinoma H69; experiment: as above; assay type: cell-based, human; details: exposure for four doubling periods (48 or 96 hours)
Protocol: as §1, §2

[3] = test system: buccal epidermoid carcinoma KB-3-1; experiment: as above; assay type: cell-based, human; details: exposure for four doubling periods (48 or 96 hours)
Protocol: as §1, §2

[4] = test system: non-small-cell lung carcinoma A549; experiment: as above; assay type: cell-based, human; details: exposure for four doubling periods (48 or 96 hours)
Protocol: as §1, §2

murine leukaemia L1210 = experiment: as above; assay type: cell-based; details: exposure for four doubling periods (48 or 96 hours)
Protocol: as §1, §2

[5] = test system: Lewis lung carcinoma (LLC); experiment: Anti-tumour activity on Lewis lung carcinoma; assay type: in vivo, B6D2F1 mice; details: D 4, 8, 12; for T/C %: increase in survival time; for Survivors D90: surviving animals on day 90, 7 animals per group
Excerpt: Lewis lung carcinoma (LLC) is a solid tumour that appeared spontaneously in the lungs of a C57B1/6 mouse and is maintained by successive transplants of fragments by the s.c. route. The LLC was obtained from the Division of Cancer Treatment, Tumor Repository, National Cancer Institute, Frederick, Md., USA. The mice, which are 4 to 6 weeks old, were obtained from Iffa Credo (Lyon, France), and weighed from 20 to 22 g at the beginning of the experiment.
On the first day of the experiment (D0), the tumours are removed and cut into fragments of approximately 30 mg which are immediately grafted by the s.c. route into the B6D2F1 mice. The mice into which the fragments have been implanted are then randomly divided into the treated groups and the control group (7 animals per group).
The parameter used for evaluating the anti-tumour activity is the increase in survival time.
In addition, the number of surviving animals in each group is counted at the end of the experiment on day 90.
The products were administered in accordance with the scheme shown below. The results are expressed as % T/C, calculated in the same manner as in the preceding test: […]

With “(5S,5aS,8aS,9R)-9-(4-Hydroxy-3,5-dimethoxyphenyl)-8-oxo-5,5a,6,8,8a,9-hexahydro-furo[3′,4′:6,7]naphtho[2,3-d][1,3]dioxol-5-yl-2-(dimethylamino)ethylcarbamate [Example 6]” the “accumulation of the cells in the G2+M phase” value (L1210 cells) was 86%, the T/C (P388 (murine leukaemia)) was 203% and the IC50 [1] was 71 nM. For the same compound, the IC50 (colon carcinoma HT29) was 121 nM, the IC50 [2] was 96 nM and the IC50 [3] was 85 nM. For the same compound, the IC50 [4] was 46 nM, the IC50 (murine leukaemia L1210) was 38 nM and the T/C % ([5]; 3.12 mg/kg i.v.) was 168%. For the same compound, the “Survivors D90” value ([5]; 3.12 mg/kg i.v.) was 1/7.

COc1cc([C@@H]2c3cc4c(cc3[C@@H](OC(=O)N(C)CCN(C)C)[C@@H]3COC(=O)[C@@H]23)OCO4)cc(OC)c1O [Example 1, (5S,5aS,8aS,9R)-9-(4-Hydroxy-3,5-dimethoxyphenyl)-8-oxo-5,5a,6,8,8a,9-hexahydro-furo[3′,4′:6,7]naphtho[2,3-d][1,3] dioxol-5-yl 2-(dimethylamino)ethyl(methyl)carbamate] was tested, and the T/C % ([5]; 25 mg/kg i.v.) was 165% and the “Survivors D90” value ([5]; 25 mg/kg i.v.) was 1/7.
